{"source": "patent US8404742B2", "about": "“Diosmetin compounds, a process for their preparation and pharmaceutical compositions containing them” (Les Laboratories Server, priority 2008, dated 2013)", "key": {"[1]": {"system": "Leukocyte adhesion to the endothelial cells in the post-capillary venules", "experiment": "In vivo inhibition of leukocyte adhesion (ischaemia/reperfusion, hamster cheek pouch)", "set-up": "species or system hamsters", "conditions": "3 mg/kg oral single dose, n=3", "experimental": "Three groups of 3 hamsters, weighing from 90 to 110 g, are used in this study. Thirty minutes before anaesthesia, the hamsters are treated orally with a single dose of placebo (gum arabic 10%), of compound of Example 1 (3 mg/kg) or of reference compound (3 mg/kg). The animals are anaesthetised with pentobarbital 50 mg/kg by intraperitoneal administration. The hamsters are placed under a microscope and the cheek pouch is isolated and immersed in a perfusion solution (NaCl 110.0 mM, KCl 4.7 mM, CaCl2 2.0 mM, MgSO4 1.2 mM, NaHCO3 18.0 mM, Hepes 15.39 mM and Hepes Na^+-salt 14.61 mM), (Duling, The preparation and use of the hamster cheek pouch for studies of the microcirculation, 1973, Microvasc. Res. 5: 423-429; Svensjö et al., The hamster cheek pouch preparation as a model for studies of macromolecular permeability of the microvasculature, 1978, Uppsala J. Med. Sci. 83: 71-79).\nLocal ischaemia is brought about with the aid of a latex tube fitted at the entrance to the cheek pouch. The intratubular pressure of the tube is increased to 200-220 mm Hg with the aid of a calibrated syringe. This total occlusion is carried out for 30 minutes and then reperfusion is performed for 45 minutes. Leukocyte adhesion to the endothelial cells in the post-capillary venules is quantified in a field of 6 mm^2 immediately after the […] (defined as 100%) and then at different times after reperfusion (0, 15, 30 and 45 minutes)."}, "[2]": {"system": "NADPH oxidase", "experiment": "In vitro inhibition of the activity of NADPH oxidase in HUVEC (angiotensin II, lucigenin luminescence)", "format": "cell-based, human", "conditions": "100 μM compound, angiotensin II 1 μM induction, control = 100%, n=3", "experimental": "The study is carried out on human endothelial cells HUVEC (Human Umbilical Vein Endothelial Cells, Clonetics Co). The cells are cultured in an EBM2 medium (Endothelial Basal Medium, Clonetics Co) supplemented with 2% FCS (Fœtal Calf Serum) and EGM2 (Endothelial Growth Medium, Clonetics Co).\nThe cells are incubated in the presence of solvent (0.1% DMSO, compound of Example 1 control), EBM2 (compound of Example 2 control and compound of Example 3 control), compound of Example 1 (100 μM), compound of Example 2 (100 μM) or compound of Example 3 (100 μM) for 15 minutes and then activated using angiotensin II (1 μM) for 30 minutes in order to activate the NADPH oxidase. The cells are washed with EBM2, and then the NADPH oxidase substrate (NADPH, 200 μM) and lucigenin (25 μM) are added. The reduction in lucigenin by the superoxide anions produced by the NADPH oxidase is quantified using a luminometer. The number of counts per second (cps) of the control groups is compared to the treatment groups. The cps obtained with the control groups are considered as 100% NADPH oxidase activity.\nThe activity of the compounds of Examples 1, 2 and 3 is evaluated as a function of the number of cps obtained, that activity being greater the lower the number of cps."}, "[3]": {"system": "washed platelets", "experiment": "In vitro inhibition of platelet aggregation (collagen-induced, washed platelets, turbidimetry)", "conditions": "Oryctolagus cuniculus, read-out: percentage inhibition of platelet aggregation", "protocol": "The platelet-rich plasma is obtained by centrifugation. The platelets are then washed by centrifugation.\nThe washed platelets are resuspended in a Tyrode buffer. […] After 2 minutes, aggregation is brought about using collagen (4 μg/ml); the response is then recorded for 6 minutes. Platelet aggregation is quantified by means of turbidimetry, that is to say the percentage light that is transmitted through the platelet suspension with respect to a cell containing Tyrode and a cell containing the solvent (0.1% DMSO)."}}}
{"smiles": "C=C(C)Cc1c(-c2cc(=O)c3c(O)c(CC(=C)C)c(O)c(CC(=C)C)c3o2)ccc(OC)c1O", "note": "[Example 1, 6,8,2′-Tris(isobut-2-en-1-yl)diosmetin]", "values": [{"measurement": "number of leukocytes adhering to endothelial cells in post-capillary venules (number after ischaemia = 100%)", "setting": "[1]; 0 minutes after reperfusion", "result": "81.7 ± 19.1", "unit": "%"}, {"measurement": "number of leukocytes adhering to endothelial cells in post-capillary venules (number after ischaemia = 100%)", "setting": "[1]; 15 minutes after reperfusion", "result": "100 ± 13.7", "unit": "%"}, {"measurement": "number of leukocytes adhering to endothelial cells in post-capillary venules (number after ischaemia = 100%)", "setting": "[1]; 30 minutes after reperfusion", "result": "91.0 ± 18.7", "unit": "%"}, {"measurement": "number of leukocytes adhering to endothelial cells in post-capillary venules (number after ischaemia = 100%)", "setting": "[1]; 45 minutes after reperfusion", "result": "109.3 ± 23.0", "unit": "%"}, {"measurement": "NADPH oxidase activity (%/control group)", "setting": "[2]", "result": "38.16 ± 3.13", "unit": "%"}, {"measurement": "inhibition at 30 µM", "setting": "[3]", "result": "36.6 ± 9.9", "unit": "%"}]}
{"smiles": "C=C(C)Cc1c(-c2cc(=O)c3c(O)c(CC(=C)C)c(O[C@@H]4O[C@H](C(=O)O)[C@@H](O)[C@H](O)[C@H]4O)c(CC(=C)C)c3o2)ccc(OC)c1O", "note": "[Example 2, (5-Hydroxy-2-[3-hydroxy-4-methoxy-2-(isobut-2-en-1-yl)phenyl]-6,8-bis(isobut-2-en-1-yl)-4-oxo-4H-chromen-7-yl)-beta-D-glucuronic acid]", "values": [{"measurement": "NADPH oxidase activity (%/control group)", "setting": "[2]", "result": "30.60 ± 4.83", "unit": "%"}]}
{"smiles": "C=C(C)Cc1c(-c2cc(=O)c3c(O)c(CC(=C)C)c(O)c(CC(=C)C)c3o2)ccc(OC)c1O[C@@H]1O[C@H](C(=O)O)[C@@H](O)[C@H](O)[C@H]1O", "note": "[Example 3, 3-[5,7-Dihydroxy-6,8-bis(isobut-2-en-1-yl)-4-oxo-4H-chromen-2-yl]-6-methoxy-2-(isobut-2-en-1-yl)phenyl-beta-D-glucuronic acid]", "values": [{"measurement": "NADPH oxidase activity (%/control group)", "setting": "[2]", "result": "18.45 ± 4.08", "unit": "%"}]}
